Measured values reported in article PMC8319832, “Fine-Tuning of Alkaline Residues on the Hydrophilic Face Provides a Non-toxic Cationic α-Helical Antimicrobial Peptide Against Antibiotic-Resistant ESKAPE Pathogens” (Frontiers in Microbiology, 2021).
Values after ≈ are worked out from the molar mass of the structure shown. Where a SMILES comes first, the peptide text is derived from it.

Assays:
A. baumannii 9068 = experiment: MIC, broth dilution; assay type: cell-based, Acinetobacter baumannii; details: CLSI broth dilution, MHB, 37°C, 20 h, OD630, at least three repeats; clinical isolate, CRE, MDR
Source text: (§1) All experiments were repeated at least three times.

A. baumannii 13012 = experiment: MIC, broth dilution; assay type: cell-based, Acinetobacter baumannii; details: CLSI broth dilution, MHB, 37°C, 20 h, OD630, at least three repeats; clinical isolate, CRE, MDR
Source text: as §1

A. baumannii 906 = experiment: MIC, broth dilution; assay type: cell-based, Acinetobacter baumannii; details: CLSI broth dilution, MHB, 37°C, 20 h, OD630, at least three repeats; clinical isolate, CRE, MDR
Source text: as §1

A. baumannii 13079 = experiment: MIC, broth dilution; assay type: cell-based, Acinetobacter baumannii; details: CLSI broth dilution, MHB, 37°C, 20 h, OD630, at least three repeats; clinical isolate, CRE, MDR
Source text: as §1

S. epidermidis 888 = experiment: MIC, broth dilution; assay type: cell-based; details: CLSI broth dilution, MHB, 37°C, 20 h, OD630, at least three repeats; clinical isolate
Source text: as §1

S. epidermidis 9092 = experiment: MIC, broth dilution; assay type: cell-based; details: CLSI broth dilution, MHB, 37°C, 20 h, OD630, at least three repeats; clinical isolate, MRSE
Source text: as §1

E. faecalis 901 = experiment: MIC, broth dilution; assay type: cell-based; details: CLSI broth dilution, MHB, 37°C, 20 h, OD630, at least three repeats; clinical isolate
Source text: as §1

S. epidermidis 6943 = experiment: MIC, broth dilution; assay type: cell-based; details: CLSI broth dilution, MHB, 37°C, 20 h, OD630, at least three repeats; clinical isolate, MRSE
Source text: as §1

P. aeruginosa ATCC 27853 = experiment: MIC, broth dilution; assay type: cell-based, Pseudomonas aeruginosa
Description: as §1
To study the influence of physiological ions on the antimicrobial activities of the peptides, The MICs of the peptides were also determined against the standard bacterial strains cultured in MHB containing various salts at their physiological concentrations (150 mM NaCl, 4.5 mM KCl, 1 mM MgCl2, 2 mM CaCl2, 6 μM NH4HCO3, and 4 μM FeCl3) ([Ma et al., 2016]).

healthy ICR mice = experiment: In vivo systemic toxicity; design: species or system mouse
Description: Healthy ICR mice (male, 6–8 weeks old, ∼30 g) were used to determine the in vivo systemic toxicity of the peptide ([Chen et al., 2013]). The mice were randomly divided into six groups (n = 10). Five cohorts were intraperitoneally injected with a single dose of 10, 20, 40, 80, and 160 mg kg^–1 body weight of the peptide dissolved in PBS. The mice injected with PBS were used as control. The survival of mice was inspected for 7 days. All surviving mice were euthanized at the end of the experiments.
For histopathological examination, each group of ICR mice (n = 6) was injected intraperitoneally with PBS or with a single dose of 40 mg kg^–1 body weight of the peptide. At 1, 2, and 7-day post-injection, the mice were euthanized, and the liver, kidney and spleen were collected and fixed with 4% formaldehyde for haematoxylin and eosin staining.

[1] = tested on: human red blood cells (hRBCs); experiment: Hemolytic activity determination; assay type: cell-based; details: peptide 100 μg ml^–1; hRBCs in 0.9% sodium chloride, 37°C, 1 h, OD540, 1% Triton X-100 = 100%; three independent experiments
Description: Fresh human red blood cells (hRBCs) were collected in a sterile borosilicate glass tube covered with sodium citrate as the anticoagulating agent. […] Two-fold dilutions of the peptides were prepared in 0.9% sodium chloride to 100 μl and mixed with equal volumn of hRBC suspension to final peptide concentrations ranging from 12.5 to 200 μg ml^–1. After co-incubation at 37°C for 1 h, the samples were centrifuged (2,000 × g, 4°C, 20 min), and the supernatant (100 μl) was taken for optical density (OD540) measurements (Asample). The hRBCs assayed with 0.9% sodium chloride (Ablank) or 1% Triton X-100 (Apositive) were applied as 0% and 100% hemolysis, respectively. Three independent experiments were performed and the percent hemolysis was calculated according to the following equation ([Yin et al., 2012]; [Li et al., 2016]):
Hemolysis(%)=100*(Asample-Ablank)/(Apositive-Ablank)

E. coli ATCC25922 = experiment: MIC, broth dilution; assay type: cell-based, Escherichia coli

CC[C@H](C)[C@H](NC(=O)[C@H](CCCCN)NC(=O)[C@H](CCCCN)NC(=O)[C@@H](NC(=O)[C@@H](N)Cc1ccccc1)[C@@H](C)CC)C(=O)N[C@@H](C)C(=O)N[C@@H](CCCCN)C(=O)N[C@@H](CC(C)C)C(=O)N[C@@H](CC(C)C)C(=O)N[C@@H](CCCCN)C(=O)N[C@@H](CCCCN)C(=O)N[C@H](C(=O)N[C@@H](Cc1ccccc1)C(N)=O)[C@@H](C)CC [BmKn2-7K] (H-FIKKIAKLLKKIF-NH2)
MIC (A. baumannii 9068): 2.5 µg/mL (≈ 1.57 µM) | MIC (A. baumannii 13012): 2.5 µg/mL (≈ 1.57 µM) | MIC (A. baumannii 906): 2.5 µg/mL (≈ 1.57 µM) | MIC (A. baumannii 13079): 2.5 µg/mL (≈ 1.57 µM) | MIC (S. epidermidis 888): 2.5 µg/mL (≈ 1.57 µM) | MIC (S. epidermidis 9092): 2.5 µg/mL (≈ 1.57 µM) | MIC (E. faecalis 901): 10 µg/mL (≈ 6.29 µM) | MIC (S. epidermidis 6943): 2.5 µg/mL (≈ 1.57 µM) | MIC (P. aeruginosa ATCC 27853; CLSI broth dilution, MHB, 37°C, 20 h, OD630, at least three repeats, standard strain): 5 µg/mL (≈ 3.15 µM) | MIC (P. aeruginosa ATCC 27853; MHB with 4 μM FeCl3): 20 µg/mL (≈ 12.6 µM) | MIC (P. aeruginosa ATCC 27853; MHB with 6 μM NH4HCO3): 20 µg/mL (≈ 12.6 µM) | histopathological examination of liver, spleen and kidney (healthy ICR mice; single intraperitoneal dose 40 mg kg^–1 body weight, 1, 2 and 7 days post-treatment, n = 6, haematoxylin-eosin): no necrosis or drug-induced injury was observed | mice surviving for 7 days (healthy ICR mice; single intraperitoneal dose 80 mg kg^–1 body weight, n = 10): 60% | survival of mice (healthy ICR mice; single intraperitoneal dose 160 mg kg^–1 body weight, n = 10): died within 24 h | survival of mice for 7 days (healthy ICR mice; single intraperitoneal dose up to 40 mg kg^–1 body weight, n = 10 per cohort): all mice | median lethal dose (LD50) (healthy ICR mice; single intraperitoneal injection, ICR mice, 7 days): exceeds 80 mg kg^–1 body weight | percent hRBC hemolysis [1]: 12.2% | MIC (E. coli ATCC25922; CLSI broth dilution, MHB, 6.25 × 10^5 cfu per ml, 37°C, 20 h, OD630, at least three repeats): 5 µg/mL (≈ 3.15 µM) | MIC (E. coli ATCC25922; MHB with 4 μM FeCl3): 20 µg/mL (≈ 12.6 µM) | MIC (E. coli ATCC25922; MHB with 6 μM NH4HCO3): 20 µg/mL (≈ 12.6 µM)
